Reference: patent publication US10004701B2, “Methods and compositions for treating infection” (UNIVERSITY OF ROCHESTER, priority 2012, dated 2018)
Counter-ions that a name gives are not always drawn. Like-named read-outs stand apart in the source and are kept apart here.

How the values were obtained:
Test in all cases: AK assay 384-well format, Prestwick library screening
P. aeruginosa = assay type: cell-based, Pseudomonas aeruginosa; conditions: 50 μM final drug concentration; for fold induction at 50 µM: Pseudomonas aeruginosa, 3 h
[1] = system: A. baumannii strain 98-37-09; assay type: cell-based, Acinetobacter baumannii; conditions: 50 μM final drug concentration; for fold induction at 50 µM: Acinetobacter baumannii, 983709, 3 h
E. faecium = assay type: cell-based, Enterococcus faecium; conditions: 50 μM final drug concentration; for fold induction at 50 µM: Enterococcus faecium, 3 h
K. pneumoniae = assay type: cell-based, Klebsiella pneumoniae; conditions: 50 μM final drug concentration; for fold induction at 50 µM: Klebsiella pneumoniae, 3 h
[2] = system: S. aureus strain USA300-0114; assay type: cell-based, Staphylococcus aureus; conditions: 50 μM final drug concentration; for fold induction at 50 µM: Staphylococcus aureus, USA300, 3 h
E. coli = assay type: cell-based, Escherichia coli; conditions: 50 μM final drug concentration; for fold induction at 50 µM: Escherichia coli, 3 h
E. cloacae = assay type: cell-based, Enterobacter cloacae; conditions: 50 μM final drug concentration; for fold induction at 50 µM: Enterobacter cloacae, 3 h
[3] = cutoff for positive-scoring molecules 3-fold increase, read-out: AK-based Prestwick Library Screening Results, P. aeruginosa (fold increase in extracellular AK activity)
[4] = cutoff for positive-scoring molecules 3-fold increase, read-out: AK-based Prestwick Library Screening Results, A. baumannii (fold increase in extracellular AK activity)
[5] = cutoff for positive-scoring molecules 3-fold increase, read-out: AK-based Prestwick Library Screening Results, E. faecium (fold increase in extracellular AK activity)
[6] = cutoff for positive-scoring molecules 3-fold increase, read-out: AK-based Prestwick Library Screening Results, K. pneumoniae (fold increase in extracellular AK activity)
[7] = cutoff for positive-scoring molecules 3-fold increase, read-out: AK-based Prestwick Library Screening Results, S. aureus (fold increase in extracellular AK activity)
[8] = cutoff for positive-scoring molecules 3-fold increase, read-out: AK-based Prestwick Library Screening Results, E. coli (fold increase in extracellular AK activity)
[9] = cutoff for positive-scoring molecules 3-fold increase, read-out: AK-based Prestwick Library Screening Results, E. cloacae (fold increase in extracellular AK activity)
[10] = planktonic, cutoff for positive-scoring molecules 3-fold increase

Compound: CC(=O)OCC(=O)[C@@]12OC(C)(C)O[C@@H]1C[C@H]1[C@@H]3C[C@H](F)C4=CC(=O)C=C[C@]4(C)[C@@]3(F)[C@@H](O)C[C@@]12C [Fluocinonide]
- fold induction at 50 µM (P. aeruginosa; [3]): 1.2
- fold induction at 50 µM [1, 4]: 0.9
- fold induction at 50 µM (E. faecium; [5]): 1
- fold induction at 50 µM (K. pneumoniae; [6]): 0.9
- fold induction at 50 µM [2, 7]: 1.1
- fold induction at 50 µM (E. coli; [8]): 1
- fold induction at 50 µM (E. cloacae; [9]): 1.7

Compound: C/C=C1/C[N@+]2(C)CC[C@]34C(=C(C=O)[C@H]1C[C@@H]32)Nc1ccccc14.[Cl-] [Fluorocurarine chloride]
- AK-based Prestwick Library Screening Results, P. aeruginosa (fold increase in extracellular AK activity) (P. aeruginosa; planktonic, […]): 0.8
- AK-based Prestwick Library Screening Results, A. baumannii (fold increase in extracellular AK activity) ([1]; planktonic, […]): 0.9
- AK-based Prestwick Library Screening Results, E. faecium (fold increase in extracellular AK activity) (E. faecium; planktonic, […]): 0.9
- AK-based Prestwick Library Screening Results, K. pneumoniae (fold increase in extracellular AK activity) (K. pneumoniae; planktonic, […]): 0.7
- AK-based Prestwick Library Screening Results, S. aureus (fold increase in extracellular AK activity) ([2]; planktonic, […]): 0.8
- AK-based Prestwick Library Screening Results, E. coli (fold increase in extracellular AK activity) (E. coli; planktonic, […]): 0.9
- AK-based Prestwick Library Screening Results, E. cloacae (fold increase in extracellular AK activity) (E. cloacae; planktonic, […]): 1.4

Compound: CC(=O)[C@@]1(O)CC[C@H]2[C@@H]3C[C@H](C)C4=CC(=O)C=C[C@]4(C)[C@@]3(F)[C@@H](O)C[C@@]21C [Fluorometholone]
- fold induction at 50 µM (P. aeruginosa; [3]): 1.1
- fold induction at 50 µM [1, 4]: 1.3
- fold induction at 50 µM (E. faecium; [5]): 1
- fold induction at 50 µM (K. pneumoniae; [6]): 1
- fold induction at 50 µM [2, 7]: 1.2
- fold induction at 50 µM (E. coli; [8]): 1.1
- fold induction at 50 µM (E. cloacae; [9]): 1.7

Compound: CNCCC(Oc1ccc(C(F)(F)F)cc1)c1ccccc1 (stereo not drawn) [Fluoxetine hydrochloride]
- fold induction at 50 µM (P. aeruginosa; planktonic P. aeruginosa, cutoff for positive-scoring molecules 3-fold increase, read-out: AK-based Prestwick Library Screening Results, P. aeruginosa (increase in extracellular AK activity)): 0.9
- fold induction at 50 µM ([1]; planktonic A. baumannii, cutoff for positive-scoring molecules 3-fold increase, read-out: AK-based Prestwick Library Screening Results, A. baumannii (increase in extracellular AK activity)): 1
- fold induction at 50 µM (E. faecium; planktonic E. faecium, cutoff for positive-scoring molecules 3-fold increase, read-out: AK-based Prestwick Library Screening Results, E. faecium (increase in extracellular AK activity)): 0.9
- fold induction at 50 µM (K. pneumoniae; planktonic K. pneumoniae, cutoff for positive-scoring molecules 3-fold increase, read-out: AK-based Prestwick Library Screening Results, K. pneumoniae (increase in extracellular AK activity)): 0.8
- fold induction at 50 µM ([2]; planktonic S. aureus, cutoff for positive-scoring molecules 3-fold increase, read-out: AK-based Prestwick Library Screening Results, S. aureus (increase in extracellular AK activity)): 1.1
- fold induction at 50 µM (E. coli; planktonic E. coli, cutoff for positive-scoring molecules 3-fold increase, read-out: AK-based Prestwick Library Screening Results, E. coli (increase in extracellular AK activity)): 1
- fold induction at 50 µM (E. cloacae; planktonic E. cloacae, cutoff for positive-scoring molecules 3-fold increase, read-out: AK-based Prestwick Library Screening Results, E. cloacae (increase in extracellular AK activity)): 1.1

Compound: OCCN1CCN(CCCN2c3ccccc3Sc3ccc(C(F)(F)F)cc32)CC1 [Fluphenazine dihydrochloride]
- fold induction at 50 µM (P. aeruginosa; planktonic P. aeruginosa, 384-well, cutoff for positive-scoring molecules 3-fold increase, read-out: AK-based Prestwick Library Screening Results: P. aeruginosa (increase in extracellular AK activity)): 1.1
- fold induction at 50 µM ([1]; planktonic A. baumannii, 384-well, cutoff for positive-scoring molecules 3-fold increase, read-out: AK-based Prestwick Library Screening Results: A. baumannii (increase in extracellular AK activity)): 1.6
- fold induction at 50 µM (E. faecium; planktonic E. faecium, 384-well, cutoff for positive-scoring molecules 3-fold increase, read-out: AK-based Prestwick Library Screening Results: E. faecium (increase in extracellular AK activity)): 1.1
- fold induction at 50 µM (K. pneumoniae; planktonic K. pneumoniae, 384-well, cutoff for positive-scoring molecules 3-fold increase, read-out: AK-based Prestwick Library Screening Results: K. pneumoniae (increase in extracellular AK activity)): 1.5
- fold induction at 50 µM ([2]; planktonic S. aureus, 384-well, cutoff for positive-scoring molecules 3-fold increase, read-out: AK-based Prestwick Library Screening Results: S. aureus (increase in extracellular AK activity)): 1
- fold induction at 50 µM (E. coli; planktonic E. coli, 384-well, cutoff for positive-scoring molecules 3-fold increase, read-out: AK-based Prestwick Library Screening Results: E. coli (increase in extracellular AK activity)): 1.3
- fold induction at 50 µM (E. cloacae; planktonic E. cloacae, 384-well, cutoff for positive-scoring molecules 3-fold increase, read-out: AK-based Prestwick Library Screening Results: E. cloacae (increase in extracellular AK activity)): 1.6

Compound: CC1(C)O[C@@H]2C[C@H]3[C@@H]4C[C@H](F)C5=CC(=O)CC[C@]5(C)[C@H]4[C@@H](O)C[C@]3(C)[C@]2(C(=O)CO)O1 [Flurandrenolide]
- fold induction at 50 µM (P. aeruginosa; planktonic, cutoff for positive 3-fold increase, read-out: AK-based Prestwick Library Screening Results, P. aeruginosa (fold increase in extracellular AK activity)): 0.4
- fold induction at 50 µM ([1]; planktonic, cutoff for positive 3-fold increase, read-out: AK-based Prestwick Library Screening Results, A. baumannii (fold increase in extracellular AK activity)): 0.5
- fold induction at 50 µM (E. faecium; planktonic, cutoff for positive 3-fold increase, read-out: AK-based Prestwick Library Screening Results, E. faecium (fold increase in extracellular AK activity)): 0.8
- fold induction at 50 µM (K. pneumoniae; planktonic, cutoff for positive 3-fold increase, read-out: AK-based Prestwick Library Screening Results, K. pneumoniae (fold increase in extracellular AK activity)): 0.5
- fold induction at 50 µM ([2]; planktonic, cutoff for positive 3-fold increase, read-out: AK-based Prestwick Library Screening Results, S. aureus (fold increase in extracellular AK activity)): 0.4
- fold induction at 50 µM (E. coli; planktonic, cutoff for positive 3-fold increase, read-out: AK-based Prestwick Library Screening Results, E. coli (fold increase in extracellular AK activity)): 0.5
- fold induction at 50 µM (E. cloacae; planktonic, cutoff for positive 3-fold increase, read-out: AK-based Prestwick Library Screening Results, E. cloacae (fold increase in extracellular AK activity)): 0.3

Compound: CC(C(=O)O)c1ccc(-c2ccccc2)c(F)c1 (stereo not drawn) [Flurbiprofen]
- fold induction at 50 µM (P. aeruginosa; planktonic, cutoff for positive-scoring molecules 3-fold increase, read-out: AK-based Prestwick Library Screening Results, P. aeruginosa (fold increase in extracellular AK activity)): 0.8
- fold induction at 50 µM ([1]; planktonic, cutoff for positive-scoring molecules 3-fold increase, read-out: AK-based Prestwick Library Screening Results, A. baumannii (fold increase in extracellular AK activity)): 0.9
- fold induction at 50 µM (E. faecium; planktonic, cutoff for positive-scoring molecules 3-fold increase, read-out: AK-based Prestwick Library Screening Results, E. faecium (fold increase in extracellular AK activity)): 0.9
- fold induction at 50 µM (K. pneumoniae; planktonic, cutoff for positive-scoring molecules 3-fold increase, read-out: AK-based Prestwick Library Screening Results, K. pneumoniae (fold increase in extracellular AK activity)): 0.7
- fold induction at 50 µM ([2]; planktonic, cutoff for positive-scoring molecules 3-fold increase, read-out: AK-based Prestwick Library Screening Results, S. aureus (fold increase in extracellular AK activity)): 0.6
- fold induction at 50 µM (E. coli; planktonic, cutoff for positive-scoring molecules 3-fold increase, read-out: AK-based Prestwick Library Screening Results, E. coli (fold increase in extracellular AK activity)): 0.8
- fold induction at 50 µM (E. cloacae; planktonic, cutoff for positive-scoring molecules 3-fold increase, read-out: AK-based Prestwick Library Screening Results, E. cloacae (fold increase in extracellular AK activity)): 1.6

Compound: O=C1NCN(c2ccccc2)C12CCN(CCCC(c1ccc(F)cc1)c1ccc(F)cc1)CC2 [Fluspirilen]
- AK-based Prestwick Library Screening Results, P. aeruginosa (fold increase in extracellular AK activity) (P. aeruginosa; [10]): 0.8
- AK-based Prestwick Library Screening Results, A. baumannii (fold increase in extracellular AK activity) [1, 10]: 6.6
- AK-based Prestwick Library Screening Results, E. faecium (fold increase in extracellular AK activity) (E. faecium; [10]): 1.3
- AK-based Prestwick Library Screening Results, K. pneumoniae (fold increase in extracellular AK activity) (K. pneumoniae; [10]): 1.1
- AK-based Prestwick Library Screening Results, S. aureus (fold increase in extracellular AK activity) [2, 10]: 1.4
- AK-based Prestwick Library Screening Results, E. coli (fold increase in extracellular AK activity) (E. coli; [10]): 1.3
- AK-based Prestwick Library Screening Results, E. cloacae (fold increase in extracellular AK activity) (E. cloacae; [10]): 1.0

Compound: CC(C)C(=O)Nc1ccc([N+](=O)[O-])c(C(F)(F)F)c1 [Flutamide]
- fold induction at 50 µM (P. aeruginosa; 384-well format, […], read-out: AK-based Prestwick Library Screening Results, P. aeruginosa (increase in extracellular AK activity)): 0.8
- fold induction at 50 µM ([1]; 384-well format, […], read-out: AK-based Prestwick Library Screening Results, A. baumannii (increase in extracellular AK activity)): 0.7
- fold induction at 50 µM (E. faecium; 384-well format, […], read-out: AK-based Prestwick Library Screening Results, E. faecium (increase in extracellular AK activity)): 1
- fold induction at 50 µM (K. pneumoniae; 384-well format, […], read-out: AK-based Prestwick Library Screening Results, K. pneumoniae (increase in extracellular AK activity)): 0.6
- fold induction at 50 µM ([2]; 384-well format, […], read-out: AK-based Prestwick Library Screening Results, S. aureus (increase in extracellular AK activity)): 0.4
- fold induction at 50 µM (E. coli; 384-well format, […], read-out: AK-based Prestwick Library Screening Results, E. coli (increase in extracellular AK activity)): 0.7
- fold induction at 50 µM (E. cloacae; 384-well format, […], read-out: AK-based Prestwick Library Screening Results, E. cloacae (increase in extracellular AK activity)): 0.7
